# T1: phosphor peptide substrate RRApTVA
# T1 chain: RRATVA
# Experiments:
# [1] = system: PP2CABA expression in roots; assay: Quantitative RT-PCR of PP2CABA expression in roots of ABA-treated rice seedlings; assay type: in vivo, Oryza sativa; details: various concentrations of ABA, 24 hours
# Experimental: FIG. 3A to FIG. 3D include diagrams showing plants have higher PP2CABA expression under induction by ABA and abiotic stress and are expressed in meristematic tissues. […] Ten-day-old rice seedlings were treated with 5 μM ABA, 200 mM NaCl, dehydration on tissue papers, or 4° C. for 3 hours. Total RNAs were purified from shoots and roots, and subjected to quantitative RT-PCR analysis using gene specific primers. […] Ten-day-old WT rice seedlings were treated with various concentrations of ABA for 24 hours. Total RNAs were purified from roots, and subjected to quantitative RT-PCR analysis using PP2CABA-specific primers. […] Recombinant GST-PP2CABA, GST-PP2CABA (D100A), GST-ABI2, and GST proteins were expressed in E. coli, purified and reacted with a phosphor peptide substrate, RRApTVA, and phosphatase activities were determined by measuring released free phosphate. […]
# Total RNA was purified from rice tissues using Trizol reagent (Invitrogen) and treated with RNase-free DNase I (Promega). […] For quantitative RT-PCR analyses, 5-μl of cDNA was mixed with primers and the 2× Power SYBR Green PCR Master Mix reagent (Roche) and applied to an ABI 7500 Real-Time PCR system (Applied Biosystems). The quantitative variation between different samples was evaluated by the Δ-Δ cycle threshold method, and the amplification of ubiquitin 5 was used as an internal control to normalize all data.
# PP2CABA promoter = assay: GUS staining of transgenic rice carrying PP2CABA:GUS treated with ABA; assay type: in vivo, Oryza sativa; details: 10 μM ABA for 1 day; basal meristem region in root tips, LR primordia and young leaves
# Experimental: (§1) FIG. 3A to FIG. 3D include diagrams showing plants have higher PP2CABA expression under induction by ABA and abiotic stress and are expressed in meristematic tissues. […] Ten-day-old rice seedlings were treated with 5 μM ABA, 200 mM NaCl, dehydration on tissue papers, or 4° C. for 3 hours. Total RNAs were purified from shoots and roots, and subjected to quantitative RT-PCR analysis using gene specific primers. […] Ten-day-old WT rice seedlings were treated with various concentrations of ABA for 24 hours. Total RNAs were purified from roots, and subjected to quantitative RT-PCR analysis using PP2CABA-specific primers. […] Recombinant GST-PP2CABA, GST-PP2CABA (D100A), GST-ABI2, and GST proteins were expressed in E. coli, purified and reacted with a phosphor peptide substrate, RRApTVA, and phosphatase activities were determined by measuring released free phosphate. […] Ten-day-old seedlings of transgenic rice carrying PP2CABA:GUS were treated with (lower panel) or without (upper panel) 10 μM ABA for 1 day and then stained for GUS activity. Arrow indicates young leaves.
# Tissues were placed in GUS assay buffer containing (0.1 M NaPO4 buffer pH 7.0, 10 mM EDTA, 0.1% Triton X-100, 0.5 mM potassium ferricyanide pH 7.0, and 1.0 mM X-glucuronide) and incubated overnight at 37° C. Vacuum aspiration was applied during initial 30 minutes. […]
# rice seedlings [2] = details: Chen et al. 2015; cited from earlier work
# rice seedlings [3] = assay: Lateral root growth and root diameter of rice seedlings treated with ABA; assay type: in vivo, Oryza sativa; details: 1 μM ABA
# Experimental: FIG. 5A to FIG. 5B include photos showing plants have lower LR to PR ratio under induction of ABA and expression of PP2CABA. […] Ten-day-old seedlings of segregated wild type (WT) or pp2caba homozygous mutant were treated with (+) or without (−) 1 μM ABA for 3 days. Upper panel: morphology of roots. Lower panel: elongation of LR in boxed area (1 cm above the root tip) of roots in upper panel. LRP (marked by arrowheads) were initiated but not elongated in WT in the presence of ABA. […] Upper panel: morphology of roots. Lower panel: elongation of LR in boxed area (2 cm above the root tip) of roots in upper panel. LRP (marked by arrowheads) were initiated but not elongated in PP2CABA-overexpressing transgenic rice. S: seminal roots. C: crown roots.
# The japonica rice (Oryza sativa cv Tainung 67) was used in this study. Plasmids were introduced into Agrobacterium tumefaciens strain EHA105, and rice transformation was performed as described (Chen et al., J Biol Chem, 277:13641 (2002)). The PP2CABA mutant seeds were obtained from the Taiwan Rice Insertional Mutant (TRIM) library (Hsing et al., Plant Molecular Biology, 63:351 (2007)). For hydroponic culture of rice seedlings, seeds were sterilized with 3% NaOCl for 30 minutes, washed extensively with distilled water, and germinated in petri dishes with wetted filter papers at 37° C. in the dark. After 48 h of incubation, germinated seeds were cultivated in Yoshida solution (Yoshida et al., International Rice Research Institute, 3 (1976)). The culture solution was replaced with fresh solution every 2 days. For observation of root growth in glass tube with phytagel, sterilized rice seeds were germinated on the surface of plate with Yoshida solution with 0.3% phytagel without sugar in the dark at 28° C. for about 48 hours. The germinated seedlings were then transplanted to glass tubes, which were 22 cm in height and 4.5 cm in diameter, and each filled with 150 ml Yoshida solution with 0.3% phytagel without sugar. 6 cm plastic dish was used to cover the glass tube and sealed by micropore tape to allow light penetration and gas exchange and prevent the medium from becoming contaminated by external microbes. Seedlings were grown under a 14-h-light/10-h-dark cycle in a 28° C. chamber.
# [4] = system: genes essential for lignin and suberin biosynthesis; assay: Quantitative RT-PCR of lignin and suberin biosynthesis genes in roots of ABA-treated WT rice; assay type: in vivo, Oryza sativa; details: ABA 24 hours, except PAL and CAD
# Description: FIG. 9A to FIG. 9B include diagrams showing that ABA and PP2CABA up-regulating the expression of genes essential for lignin and suberin biosynthesis. […] Total RNA was purified from roots and subjected to quantitative RT-PCR analysis using gene specific primers.
# Total RNA was purified from rice tissues using Trizol reagent (Invitrogen) and treated with RNase-free DNase I (Promega). The DNase-digested RNA sample was used for reverse transcription by Superscript III reverse transcriptase (Invitrogen). Samples, which served as cDNA stocks for PCR analysis, were stored at −70° C. RT-PCR analysis was performed in a 50-μl solution containing 5-μl cDNA stock using Taq DNA polymerase (Viogene). RT-PCR products were fractionated in a 1.5% agarose gel and visualized by ethidium bromide staining. All RT-PCR analyses were performed from at least two batches of RNA samples with similar results. For quantitative RT-PCR analyses, 5-μl of cDNA was mixed with primers and the 2× Power SYBR Green PCR Master Mix reagent (Roche) and applied to an ABI 7500 Real-Time PCR system (Applied Biosystems). The quantitative variation between different samples was evaluated by the Δ-Δ cycle threshold method, and the amplification of ubiquitin 5 was used as an internal control to normalize all data.
# rice roots = assay: Histochemical staining of root sections for lignin (acriflavine) and suberin (fluorol yellow 088); assay type: in vivo, Oryza sativa; details: 1 μM ABA, 3 days
# Experimental: FIG. 10A to FIG. 10B include photos showing ABA and PP2CABA enhance the accumulation of lignin and suberin in cell walls of root peripheral layers and increase the root diameter. […] 1 μM ABA was added and seedlings were cultured for another 3 days. […] Roots at 1 cm above the apex were cross-sectioned and stained with acriflavine for lignin and fluorol yellow 088 for suberin. F, fluorescence image; T, transmission image; EP, epidermis; EX, exodermis; SC, sclerenchyma; CO, cortex. Scale bars=10 μm.
# Methonal fixed roots were embedded in 5% agar and cut into 100 μm cross sections using a vibratome (DOSAKA DTK-1000). To check for autofluorescence, sections were viewed under a Zeiss Axiolmager Z1 fluorescence microscope with UV illumination using excitation filter G 365, chromatic beam splitter FT 395, and barrier filter LP 420. To check for lignin distribution, sections were stained with Acriflavine as described (Rocha et al., Front Plant Sci, 5:102 (2014)). Sections were imaged with a Zeiss LSM 510 META confocal microscope using a 488 nm laser line for excitation and a 505 to 550 nm band pass filter for emission. To check for suberin lamellae, sections were stained with Fluorol Yellow 088 as described (Brundrett et al., Biotech Histochem, 66:111 (1991); Landgraf et al., Plant Cell, 26:3403 (2014)). […]
# [5] = target: T1, phosphor peptide substrate RRApTVA
# [6] = system: phosphor peptide substrate, RRApTVA; assay: Phosphatase activity assay of GST fusion proteins (released free phosphate); assay type: biochemical; details: recombinant GST fusion protein from E. coli, synthetic phosphopeptide
# Experimental: as §1
# FIG. 6A to FIG. 6E include diagrams showing PP2CABA having two forms which are translated from the first and the second ATG codons. […] The 2nd ATG encodes the Met at amino acid residue 41. Amino acids 1-24 are putative signal peptide (SP). […] Protein loading is shown by the Ponceau S staining (lower panel). […]
molecule,measurement,setting,value
"CC1=CC(=O)CC(C)(C)[C@@]1(O)/C=C/C(C)=C\C(=O)O [ABA, abscisic acid]",dose dependence of PP2CABA expression in roots,[1],increased with ABA concentrations in a dose-dependent manner
same,PP2CABA promoter activity (GUS),PP2CABA promoter,induced
same,ABA concentrations that enhance LR growth,rice seedlings [2],≤ 0.1 µM
same,ABA concentrations that inhibit LR growth,rice seedlings [2],≥ 0.2 µM
same,"LR growth, WT compared with pp2caba",rice seedlings [3],more severely inhibited in WT than in pp2caba mutant
same,LR growth in WT,"rice seedlings [3]; 3 days, WT seedlings, maturation zones of roots",completely inhibited
same,LR growth in pp2caba,"rice seedlings [3]; 3 days, pp2caba homozygous mutant, maturation zones of roots",stunted
same,root diameter,rice seedlings [3]; both WT and pp2caba,enlarged
same,expression of lignin and suberin biosynthesis genes,[4],induced
same,accumulation of lignin and suberin in endodermal and exodermal cell layers in roots,rice roots,enhanced the accumulation of lignin and suberin
GST-PP2CABA (protein) LSQGAEEEEDDGEVRLMGLAGEAAGSPGSGGGFSANGKFSYGYASSPGKRSSMEDFYDTRIDGVDGETVGLFGVFDGHGGARAAEFVKQNLFTNLIKHPKLFSDTKSAIAETYTSTDSELLKAETSHNRDAGSTASTAILVGDRLLVANVGDSRAVICRGGDAIAVSRDHKPDQSDERQRIEDAGGFVMWAGTWRVGGVLAVSRAFGDKLLKQYVVADPEIKEEVVDSSLEFLILASDGLWDVVTNEEAVAMVKPILDSEQAAKKLLQEASQRGSADNITCLVVRFLEQENHLPERPTNDQAS,phosphatase activity (released free phosphate),[5],GST-PP2CABA fusion protein expressed and purified from E. coli exhibited phosphatase activity
GST-PP2CABA(25-327) (protein) LSQGAEEEEDDGEVRLMGLAGEAAGSPGSGGGFSANGKFSYGYASSPGKRSSMEDFYDTRIDGVDGETVGLFGVFDGHGGARAAEFVKQNLFTNLIKHPKLFSDTKSAIAETYTSTDSELLKAETSHNRDAGSTASTAILVGDRLLVANVGDSRAVICRGGDAIAVSRDHKPDQSDERQRIEDAGGFVMWAGTWRVGGVLAVSRAFGDKLLKQYVVADPEIKEEVVDSSLEFLILASDGLWDVVTNEEAVAMVKPILDSEQAAKKLLQEASQRGSADNITCLVVRFLEQENHLPERPTNDQAS,phosphatase activity (released free phosphate),[5],both of L form and S form of PP2CABA have phosphatase activities
"GST-PP2CABA: GST-PP2CABA fusion protein expressed and purified from E. coli (protein, left off: a dimerising Fc or GST, GST-PP2CABA fusion protein expressed and purified from E. coli) LSQGAEEEEDDGEVRLMGLAGEAAGSPGSGGGFSANGKFSYGYASSPGKRSSMEDFYDTRIDGVDGETVGLFGVFDGHGGARAAEFVKQNLFTNLIKHPKLFSDTKSAIAETYTSTDSELLKAETSHNRDAGSTASTAILVGDRLLVANVGDSRAVICRGGDAIAVSRDHKPDQSDERQRIEDAGGFVMWAGTWRVGGVLAVSRAFGDKLLKQYVVADPEIKEEVVDSSLEFLILASDGLWDVVTNEEAVAMVKPILDSEQAAKKLLQEASQRGSADNITCLVVRFLEQENHLPERPTNDQAS",phosphatase activity,[6],exhibited phosphatase activity
GST-PPCABA(41-327) (protein) MGLAGEAAGSPGSGGGFSANGKFSYGYASSPGKRSSMEDFYDTRIDGVDGETVGLFGVFDGHGGARAAEFVKQNLFTNLIKHPKLFSDTKSAIAETYTSTDSELLKAETSHNRDAGSTASTAILVGDRLLVANVGDSRAVICRGGDAIAVSRDHKPDQSDERQRIEDAGGFVMWAGTWRVGGVLAVSRAFGDKLLKQYVVADPEIKEEVVDSSLEFLILASDGLWDVVTNEEAVAMVKPILDSEQAAKKLLQEASQRGSADNITCLVVRFLEQENHLPERPTNDQAS,phosphatase activity (released free phosphate),[5],both of L form and S form of PP2CABA have phosphatase activities
same,phosphatase activity,[6],have phosphatase activities

# From patent US20180163221A1, “TRANSGENIC PLANTS EXPRESSING TYPE 2C PROTEIN PHOSPHATASE ABSCISIC ACID (PP2CABA) PROTEINS AND USES THEREOF” (Academia Sinica, priority 2016, published 2018)
